Experimental data published in patent US20090175848A1, “Modulation of the Cooperativity Between the Ion Channels TRPM5 and TRPA1” (priority 2007, published 2009).

What was measured:
[1] = test system: Chinese hamster ovary (CHO) cells expressing TRPM5; assay: FLIPR assay in CHO cells expressing TRPM5; assay type: cell-based; details: TRPM5 expressed in CHO cells
Description: (§1) To create a stably transfected cell line expressing hTRPM5, 1.0×10^6 HEK 293 cells (ATCC, Manassas, Va.) were seeded in 35 mm tissue culture dishes (Falcon, BD Biosciences, Bedford, Mass.) and grown overnight in a 37° C. and 5% CO2 incubator, in culture medium consisting of DMEM, 10% fetal bovine serum (FBS), and penicillin with streptomycin. The next day, the cells were transfected using 4 μg of pcDNA 3.2-hTRPM5 with 7 μl of Lipofectamine 2000 (Invitrogen), following the manufacturer's protocol. After two days in culture, the cells were replated at 1:10 and 1:100 dilution, and from those plates seeded at very low density in 96-well plates to isolate single-cell colonies. […]
For hTRPM5-293 or HEK293 assays, cells were seeded overnight in poly-D-lysine coated 384-well plates at 15,000 cells per well in 20 μl of media. […] The assay was performed using a fluorometric imaging plate reader (FLIPR-Tetra™, Molecular Devices, Sunnyvale, Calif.), using the excitation 510-545 nm and emission 565-625 nm filter sets. […] The plates were read on the FLIPR® for a total of 3 minutes for a single addition assay and 6 minutes for a 2 addition assay. For single addition assays, baseline fluorescence was obtained on the FLIPR® for 10 seconds followed by addition of each sample by the FLIPR® and read for an additional 2 minutes and 50 seconds. […]

[2] = test system: TRPM5-expressing HEK-293 cells (TRPM5-293); assay: FLIPR membrane potential assay in TRPM5-293 cells; assay type: cell-based, human; details: for effect on AITC membrane potential response: pre-treatment, then AITC, TRPM5-293 cells
Description: To create a stably transfected cell line expressing hTRPM5, 1.0×10^6 HEK 293 cells (ATCC, Manassas, Va.) were seeded in 35 mm tissue culture dishes (Falcon, BD Biosciences, Bedford, Mass.) and grown overnight in a 37° C. and 5% CO2 incubator, in culture medium consisting of DMEM, 10% fetal bovine serum (FBS), and penicillin with streptomycin. The next day, the cells were transfected using 4 μg of pcDNA 3.2-hTRPM5 with 7 μl of Lipofectamine 2000 (Invitrogen), following the manufacturer's protocol. After two days in culture, the cells were replated at 1:10 and 1:100 dilution, and from those plates seeded at very low density in 96-well plates to isolate single-cell colonies. To select individual clones, 1 mg/ml Geneticin (Invitrogen) was added to the culture medium. Once stably expressing clones were identified, the concentration of Geneticin was reduced to 0.25 mg/ml for expansion and maintenance. Clones were selected on the basis of their response to ATP (Sigma) and lonomycin (Sigma) in the FLIPR® assay using the Membrane Potential Assay Kit RED (Molecular Devices). Stable cell lines in chinese hamster ovary cells (CHO-M1) were created similarly except that 5.0×10^5 cells were plated in 35 mm dishes overnight and the selection medium consisted of F-12K/Ham's, 10% fetal bovine serum (FBS), 100 μg/ml of Geneticin, and 10 μg/ml Blasticidin S HCl, and penicillin with streptomycin. Stably expressing clones were maintained in the same medium except that the Balsticidin S HCl concentration was reduced to 5 μg/ml.
(§2) For hTRPM5-293 or HEK293 assays, cells were seeded overnight in poly-D-lysine coated 384-well plates at 15,000 cells per well in 20 μl of media. For assays of hTrpM5-CHO-M1 assays cells were seeded overnight in tissue culture treated 384-well plates at 10,000 cells per well in 20 μl of media. The assay was performed using a fluorometric imaging plate reader (FLIPR-Tetra™, Molecular Devices, Sunnyvale, Calif.), using the excitation 510-545 nm and emission 565-625 nm filter sets. The cells were loaded with 20 μl/well of Membrane Potential Assay Kit RED dye (Molecular Devices), in a 37° C. and 5% CO2 incubator for 1 hour. To measure intracellular calcium changes, the Calcium 3 dye (Molecular Devices) supplemented with 125 μM was used. The plates were equilibrated to room temperature for 15 minutes before the start of the assay. The compounds allyl isothiocyanate (AITC), cinnamaldehyde, EGTA, ionomycin, U73122, U73144 were purchased from Sigma-Aldrich (St. Louis, Mo.) and stocks prepared in DMSO. Samples were diluted in HBSS with 20 mM HEPES prior to the assay and 10 μl per well was added to the assay plate. The plates were read on the FLIPR® for a total of 3 minutes for a single addition assay and 6 minutes for a 2 addition assay. For single addition assays, baseline fluorescence was obtained on the FLIPR® for 10 seconds followed by addition of each sample by the FLIPR® and read for an additional 2 minutes and 50 seconds. For 2 addition assays, baseline fluorescence was obtained on the FLIPR® for 10 seconds followed by addition of the first sample (e.g. inhibitors, EGTA) by the FLIPR®, read for 2 minutes and 50 seconds, then followed by the addition of AITC and read for another 3 minutes. For ΔRFU measurements, the baseline fluorescence signal (RFUmin) was subtracted from the peak fluorescence signal (RFUmax) at each compound concentration (RFUmax—RFUmin). ΔRFU values for individual concentrations were measured in triplicate, and s.d. reported as error bars.

[3] = test system: TRPM5-expressing HEK-293 cells (TRPM5-293); assay: FLIPR calcium assay in TRPM5-293 cells; assay type: cell-based, human; details: for effect on AITC calcium response: pre-treatment, then AITC, TRPM5-293 cells
Description: as §1, with “colonies. To select individual clones, 1 mg/ml Geneticin (Invitrogen) was added to the culture medium. Once stably expressing clones were identified, the concentration of Geneticin was reduced to 0.25 mg/ml for expansion and maintenance.” for “colonies.”
For hTRPM5-293 or HEK293 assays, cells were seeded overnight in poly-D-lysine coated 384-well plates at 15,000 cells per well in 20 μl of media. […] The assay was performed using a fluorometric imaging plate reader (FLIPR-Tetra™, Molecular Devices, Sunnyvale, Calif.), using the excitation 510-545 nm and emission 565-625 nm filter sets. […] The plates were read on the FLIPR® for a total of 3 minutes for a single addition assay and 6 minutes for a 2 addition assay. For single addition assays, baseline fluorescence was obtained on the FLIPR® for 10 seconds followed by addition of each sample by the FLIPR® and read for an additional 2 minutes and 50 seconds. For 2 addition assays, baseline fluorescence was obtained on the FLIPR® for 10 seconds followed by addition of the first sample (e.g. inhibitors, EGTA) by the FLIPR®, read for 2 minutes and 50 seconds, then followed by the addition of AITC and read for another 3 minutes. For ΔRFU measurements, the baseline fluorescence signal (RFUmin) was subtracted from the peak fluorescence signal (RFUmax) at each compound concentration (RFUmax—RFUmin). ΔRFU values for individual concentrations were measured in triplicate, and s.d. reported as error bars.

[4] = test system: TRPM5-expressing HEK cells; assay: Whole-cell electrophysiology in TRPM5-expressing HEK cells; assay type: cell-based, human; details: whole-cell voltage clamp, voltage dependence
Description: Whole-cell recordings of TRP channel currents were obtained from acutely trypsinized TRPM5-expressing HEK cells. The bath solution was Hank's Balanced Salt Solution, composed of (mM); 1.2 CaCl2, 0.5 MgCl2-6H2O, 0.4 MgSO4-7H2O, 5.3 KCl, 0.4 KH2PO4, 137.9 NaCl, 0.3 Na2HPO4-7H2O, and 5.5 D-Glucose, with 20 mM HEPES (Invitrogen), pH 7.4 (NaOH). The internal pipette solution contained, in mM: 135 glutamic acid, 8 NaCl, 3 CaCl2, 10 HEPES and 10 EGTA, pH 7.2 (CsOH) (Sigma). Calculated concentration of free calcium in internal solution was 77 nM (MaxChelator, Stanford University). Recording pipettes were pulled using a Flaming/Brown Micropipette Puller (Sutter Instruments), from fire-polished borosilicate glass, to approximately 2 MΩ. Voltage clamp recordings were obtained in whole cell mode using MultiClamp 700B amplifier and Digidata 1322A converter running on Clampex 9.2 software (Axon Instruments). Recordings were performed at room temperature. Series resistance was automatically compensated immediately after the break-in. Data were sampled at 5 kHz and filtered at 1 kHz. AITC was dissolved in bath solution and applied to the cells with a multi-barrel applicator (SF-72, Warner Instruments).

parental HEK-293 cells = assay: FLIPR calcium assay in untransfected cells; assay type: cell-based, human; details: untransfected (parental HEK-293) cells
Description: as §2, with “The plates were equilibrated to room temperature for 15 minutes before the start of the assay. The compounds allyl isothiocyanate (AITC), cinnamaldehyde, EGTA, ionomycin, U73122, U73144 were purchased from Sigma-Aldrich (St. Louis, Mo.) and stocks prepared in DMSO. Samples were diluted in HBSS with 20 mM HEPES prior to the assay and 10 μl per well was added to the assay plate.” left out, “For ΔRFU measurements, the baseline fluorescence signal (RFUmin) was subtracted from the peak fluorescence signal (RFUmax) at each compound concentration (RFUmax—RFUmin). ΔRFU values for individual concentrations were measured in triplicate, and s.d. reported as error bars.” left out

[5] = agonist added to TRPM5-293 cells, FLIPR

Structure (SMILES) | activation of TRPM5 [1] | EC50 ([2]; Homo sapiens, HEK293, read-out: EC50 (tested concentration closest to it)) | EC90 ([2]; Homo sapiens, HEK293, read-out: EC90 (tested concentration closest to it)) | membrane potential response [2, 5] | intracellular calcium levels [3, 5] | desensitization of the AITC-activated current [4] | intracellular calcium response (parental HEK-293 cells) | effect on AITC membrane potential response [2] | effect on AITC calcium response [3] | effect on ionomycin membrane potential response ([2]; ionomycin as stimulus)
C=CCN=C=S [AITC, allyl isothiocyanate] | does not activate | ~3 µM | ~33 µM | strong membrane potential response | increase in intracellular calcium levels | delayed at positive membrane potentials | no response |  |  | 
O=C(O)CN(CCOCCOCCN(CC(=O)O)CC(=O)O)CC(=O)O [EGTA] |  |  |  |  |  |  |  | altered the membrane potential | inhibited the calcium response | 
COc1ccc2c(c1)CC[C@@H]1[C@@H]2CC[C@]2(C)[C@@H](NCCCCCCN3C(=O)C=CC3=O)CC[C@@H]12 [U73122] |  |  |  |  |  |  |  | enhanced | enhanced | enhances
